# Experimental data: patent publication US6660767B2, “Coumarin compounds as microtubule stabilizing agents and therapeutic uses thereof” (The Regents of the University of California, priority 2001, dated 2003)
# “Also recorded” adds a separate entry of the source. Like-named read-outs stand apart in the source and are kept apart here.
# How the values were obtained:
# S. purpuratus embryos = experiment: Inhibition of first cleavage (cell division) of sea urchin embryos; assay type: cell-based, Strongylocentrotus purpuratus; settings: for inhibition of the first cleavage of S. purpuratus embryos: FIGS. 1-4; for IC50: Strongylocentrotus purpuratus, read-out: concentration required for half maximal inhibition of first cleavage
# Experimental: (§1) Male and female Strongylocentrotus purpuratus or S. franciscanus were injected with 0.5 M KCl through the soft tissue of the oral surface into the coleomic cavity and were then cultured in filtered seawater by conventional methods in the art. See e.g. O'Brien, E. T., et al. (1989) Mol. Pharmacol. 35:635-642; and Jacobs, J. S. and L. Wilson (1986) Drugs Pharm. Sci. 27:481-493, which are herein incorporated by reference. Gametes were released into filtered seawater. The eggs were stirred and passed 3 times through a […] Nitex mesh (Tetko, Inc., Elmsford, N.Y.) to remove the jelly coating and then allowed to settle. The seawater was aspirated off and then the eggs were centrifuged for 4 minutes at 310 rpm. The eggs were resuspended at 1% (v/v) in filtered seawater and set aside. Fresh sperm were collected from the aboral surface of a male urchin. About 1 drop of concentrated sperm was collected into a test tube and 1 ml of seawater was added. A 1 ml aliquot of the sperm solution was added per 100 ml of suspended eggs and immediately mixed.
# After 1 minute post-fertilization, about 1 ml of embryos were placed on a microscope slide and checked for percent fertilization under a 10× magnification with a light microscope. A visible fertilization membrane differentiates fertilized egg from the unfertilized. The fertilized embryos were then incubated with a coumarin compound no later than 5 minutes after initial fertilization. The embryos were incubated for about 2 hours at about 15° C. to about 17° C., or until the control embryos completed first division and were in the 2-cell stage. The amount of division was calculated in each test sample by counting the number of divided versus undivided embryos in a small sample of about 40 μL using the light microscope.
# (§2) Quantitation of division was performed by counting the number of divided and nondivided embryos after the control embryos had progressed to the end of first cleavage (about 120 minutes after fertilization). […]
# [1] = system: Lytechinus pictus embryos; experiment: Inhibition of first cleavage of sea urchin embryos (dose-response); assay type: cell-based
# sea urchin embryos [2] = experiment: Cell cycle analysis: dicoumarol added at 10-minute intervals after fertilization; settings: 50 μM dicoumarol added at 10-minute intervals; FIG. 5
# Experimental: The ability of dicoumarol to block cells in mitosis, like a mitotic spindle poison, was examined. The first mitosis typically occurs between about 70 to about 90 minutes after fertilization and cytokinesis is usually complete at about 120 minutes, giving rise to two blastomeres.
# Specifically, aliquots were designated T-10, T-20, . . . T-120.
# sea urchin embryos [3] = experiment: Spindle microtubule and chromosome organization in sea urchin embryos (immunofluorescence, modified Balczon and Schatten); assay type: cell-based, S. franciscanas; settings: 50 μM dicoumarol
# Experimental: Sea urchin embryos prepared according to Example 1 were used to study the effect of coumarin compounds on spindle microtubule organization and chromosome organization using immunofluorescence microscopy with specific antibodies for tubulin and DAPI was used to image the chromatin. Two different sea urchin embryo assay protocols were used.
# Fixation and staining of embryos for immunofluorescence microscopy were performed according to a modified method of Balczon and Schatten ((1983) Cell Motility 3:213-226, which is herein incorporated by reference). […]. After extraction for 45 minutes, the embryos were fixed for 6 minutes with −10° C. methanol. After methanol fixation, the cells were rinsed for 5 minutes in PBS and then 25 μl of anti-α-tubulin monoclonal antibody (1:100) in PBS comprising 2% bovine serum albumin was added.
# The embryos were incubated at 37° C. for about 60 to about 75 minutes and rinsed for 20 minutes in PBS after which 25 μl of a secondary staining solution comprising fluoroscein isothiocynate (FITC) conjugated to an anti-mouse IgG (1:100 in PBS) and DAPI (10 μg/ml) was added. The embryos were then incubated for 60 minutes at 37° C. and then rinsed for 20 minutes in PBS. Coverslips were mounted onto the slides with a solution of Vectashield® (Vector Laboratories, Inc., Burlingame, Calif.) and sealed with nail polish. […]
# S. franciscanus embryos = experiment: Inhibition of first cleavage of sea urchin embryos (dose-response); assay type: cell-based
# Experimental: as §1, with “Fresh sperm were collected from the aboral surface of a male urchin. About 1 drop of concentrated sperm was collected into a test tube and 1 ml of seawater was added. A 1 ml aliquot of the sperm solution was added per 100 ml of suspended eggs and immediately mixed.” left out
# After 1 minute post-fertilization, about 1 ml of embryos were placed on a microscope slide and checked for percent fertilization under a 10× magnification with a light microscope. […] The amount of division was calculated in each test sample by counting the number of divided versus undivided embryos in a small sample of about 40 μL using the light microscope.
# as §2
# tubulin = tubulin (Bos taurus, UniProt P81947+Q6B856); experiment: Turbidity (light scattering) polymerization assay with electron microscopy; assay type: biochemical, bovine
# tubulin, sequence (Q6B856 whole entry): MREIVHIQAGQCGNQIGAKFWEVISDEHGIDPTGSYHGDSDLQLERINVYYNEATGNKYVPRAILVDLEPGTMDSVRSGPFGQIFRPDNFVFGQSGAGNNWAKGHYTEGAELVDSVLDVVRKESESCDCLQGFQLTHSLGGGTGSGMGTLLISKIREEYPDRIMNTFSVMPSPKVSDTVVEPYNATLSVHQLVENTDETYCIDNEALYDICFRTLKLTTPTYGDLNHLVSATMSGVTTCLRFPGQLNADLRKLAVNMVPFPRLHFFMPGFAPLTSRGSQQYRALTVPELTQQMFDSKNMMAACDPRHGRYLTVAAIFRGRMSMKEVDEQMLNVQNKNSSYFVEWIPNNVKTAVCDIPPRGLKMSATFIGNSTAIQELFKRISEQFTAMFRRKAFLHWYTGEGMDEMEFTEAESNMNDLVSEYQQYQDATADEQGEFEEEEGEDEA
# tubulin, sequence (P81947 whole entry): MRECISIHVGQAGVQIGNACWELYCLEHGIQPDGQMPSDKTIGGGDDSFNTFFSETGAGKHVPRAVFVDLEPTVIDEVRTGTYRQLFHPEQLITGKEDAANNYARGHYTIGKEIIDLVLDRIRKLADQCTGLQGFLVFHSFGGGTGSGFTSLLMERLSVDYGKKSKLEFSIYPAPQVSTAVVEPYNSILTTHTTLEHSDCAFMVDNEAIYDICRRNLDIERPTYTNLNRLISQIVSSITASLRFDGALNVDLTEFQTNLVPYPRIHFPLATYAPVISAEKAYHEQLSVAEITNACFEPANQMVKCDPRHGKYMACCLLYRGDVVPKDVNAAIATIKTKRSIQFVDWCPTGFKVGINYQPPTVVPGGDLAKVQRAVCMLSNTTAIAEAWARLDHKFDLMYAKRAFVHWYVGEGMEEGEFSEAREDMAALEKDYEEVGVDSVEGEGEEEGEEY
# Experimental: To determine the rate and extent of the ability of a test compound to promote or inhibit microtubule polymerization (change in turbidity) a coumarin compound is added to a cuvet comprising about 1 mg/ml microtubule protein. The cuvet is incubated at 37° C. for 45 minutes in a spectrophotometer equipped with a heating unit and the absorbance is measured at about 340 nm. The change in absorbance is measured at intervals of 45 seconds over the 45-minute period and compared to the absorbance change induced by 1 mM GTP.
# Specifically, 1.2 mg/ml of microtubule protein was mixed with different concentrations of dicoumarol in 100 mM PIPES, 1 mM MgCl2, and 1 mM EGTA (100 mM PEM buffer), and 1 mM guanosine 5′-triphosphate. Microtubule polymerization was monitored at 37° C. by light scattering at 350 nm using a Gilford Response Spectrophotometer.
# 10 μl aliquots were taken from spectrophotometrically followed reaction mixtures obtained during the course of the turbidity/light scattering assays at 10, 20, and 45 minutes and applied to 200-mesh carbon coated, Formavar-treated, copper grids (Ted Pella, Inc., Redding, Calif.). The sample was followed by several drops of 0.5% uranyl acetate and excess was drained off with filter paper. The grids were then examined with a Zeiss model 10CA electron microscope.
smiles,measurement,setting,value
CC(=O)CC(c1ccccc1)c1c(O)c2ccccc2oc1=O (centres unmarked) [warfarin],inhibition of the first cleavage of S. purpuratus embryos,S. purpuratus embryos,inhibited the first cleavage
O=c1ccc2ccccc2o1 [coumarin],inhibition of the first cleavage of S. purpuratus embryos,S. purpuratus embryos,inhibited the first cleavage
O=c1oc2ccccc2c(O)c1Cc1c(O)c2ccccc2oc1=O [dicoumarol],dose-response curve of cleavage inhibition,[1],identical to those obtained using S. purpuratus
same,inhibition of first cleavage versus time of addition after fertilization,sea urchin embryos [2],rapidly declined when dicoumarol was added 90 minutes after fertilization; also recorded: blocked if added after metaphase (90 minutes)
same,chromosome organization,sea urchin embryos [3],disorganized chromosomes that had not congressed to the metaphase plate
same,microtubules of mitotic spindles,sea urchin embryos [3],"bipolar, but appeared to be longer and located outside an intact nuclear envelope"
same,dose-response curve of cleavage inhibition,S. franciscanus embryos,identical to those obtained using S. purpuratus
same,inhibition of the first cleavage of S. purpuratus embryos,S. purpuratus embryos,inhibited the first cleavage
same,concentration at which cell division was completely blocked,S. purpuratus embryos; S. purpuratus embryos,≥ 20 µM
same,IC50,S. purpuratus embryos,~4 µM
same,lysis or morphological changes of treated embryos,S. purpuratus embryos; dicoumarol treated embryos,no lysis or morphological changes
same,microtubule formation by electron microscopy,"tubulin; 100 μM dicoumarol, polymerization prolonged to 45 minutes",microtubules were produced
same,microtubule formation by electron microscopy,"tubulin; axonemal seeded microtubules, 20 μM dicoumarol",revealed actual microtubule structures
same,microtubule formation by electron microscopy,"tubulin; polymerization for 10 and 20 minutes, no axonemes",No microtubules were formed
same,rate and extent of polymerization of tubulin (turbidity),"tubulin; tubulin 12 μM, dicoumarol 0 μM-80 μM, FIG. 9",increased the rate and extent of tubulin polymerization; also recorded: concentration-dependent increase
O=c1ccc2ccc(O)cc2o1 [7-hydroxycoumarin],inhibition of the first cleavage of S. purpuratus embryos,S. purpuratus embryos,inhibited the first cleavage
same,IC50,"S. purpuratus embryos; S. purpuratus embryos, first cleavage",~40 µM
